Legend:
[1] = system: PC3 (Prostate Cancer) cells; assay: Cellular growth assay (MTT), PC3; type: cell-based; conditions: Homo sapiens, PC-3, 40 hr incubation, read-out: PC3 (inhibition of 50% of cellular growth)
Description: (§1) K562 (Chronic Myeloid Leukemia), PC3 (Prostate Cancer), and DU145 (Prostate Cancer) were obtained from the American Type Culture Collection (ATCC). K562 was grown in RPMI, with 10% FBS with Glutamx added. DU145 cells were cultured in DMED, with 10% FBS and Glutamx and MEM non-essential amino acids added. PC3 cells were grown in F12K medium, with 10% FBS and Glutamx and MEM non-essential amino acids added. All cells were grown at 37° C. in 5% CO2.

TelJak3 = TelJak3 (Homo sapiens, UniProt P52333); assay: Cellular growth assay (MTT), BaF3 TEL/JAK3 cells; type: cell-based; conditions: 40 hr incubation, read-out: TelJak3 (inhibition of 50% of cellular growth)
Chain of TelJak3 (P52333 with tags, fused parts or gaps): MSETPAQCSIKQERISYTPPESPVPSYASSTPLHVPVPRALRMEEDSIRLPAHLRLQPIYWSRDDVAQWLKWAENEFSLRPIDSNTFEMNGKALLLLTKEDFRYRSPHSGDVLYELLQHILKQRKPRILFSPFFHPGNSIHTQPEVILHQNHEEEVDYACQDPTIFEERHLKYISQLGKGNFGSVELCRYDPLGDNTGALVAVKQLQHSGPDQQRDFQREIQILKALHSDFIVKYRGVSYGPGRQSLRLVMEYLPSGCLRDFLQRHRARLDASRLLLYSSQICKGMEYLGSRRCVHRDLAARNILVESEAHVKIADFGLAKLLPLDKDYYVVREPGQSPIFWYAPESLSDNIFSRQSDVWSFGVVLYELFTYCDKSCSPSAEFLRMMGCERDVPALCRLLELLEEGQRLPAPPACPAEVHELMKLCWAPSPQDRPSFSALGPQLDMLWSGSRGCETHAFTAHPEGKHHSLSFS

Tubulin = Tubulin assay (turbidometric microtubule assembly); type: biochemical; conditions: at 50 μM, absorbance at 340 nm, 37° C.
Description: Turbidometric assays of microtubule assembly were performed by incubating microtubule protein in cuvettes at 37° C. in a thermostatically controlled spectrophotometer measuring the change in absorbance at 340 nm over time. The microtubule protein was incubated with the each test compound at 0° C. and polymerisation was initiated by addition of 1 mM GTP, prior to heating to 37° C.

TelJak2 = TelJak2 (Homo sapiens, UniProt O60674); assay: Cellular growth assay (MTT), BaF3 TEL/JAK2 cells; type: cell-based; conditions: 40 hr incubation, read-out: TelJak2 (inhibition of 50% of cellular growth)
Chain of TelJak2 (O60674 with tags, fused parts or gaps): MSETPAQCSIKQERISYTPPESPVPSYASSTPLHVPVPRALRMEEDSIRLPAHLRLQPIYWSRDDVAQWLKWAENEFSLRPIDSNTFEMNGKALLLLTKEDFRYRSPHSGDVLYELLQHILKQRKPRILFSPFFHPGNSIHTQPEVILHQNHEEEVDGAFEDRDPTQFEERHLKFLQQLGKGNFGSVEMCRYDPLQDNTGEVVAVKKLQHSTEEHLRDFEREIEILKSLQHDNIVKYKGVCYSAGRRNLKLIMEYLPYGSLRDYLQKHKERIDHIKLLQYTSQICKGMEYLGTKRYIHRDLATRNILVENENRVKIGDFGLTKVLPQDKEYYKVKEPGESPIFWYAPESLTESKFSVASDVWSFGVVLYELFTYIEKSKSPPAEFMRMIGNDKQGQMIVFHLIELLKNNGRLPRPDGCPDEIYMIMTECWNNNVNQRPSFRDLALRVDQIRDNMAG

[2] = system: DU145 (Prostate Cancer) cells; assay: Cellular growth assay (MTT), DU145; type: cell-based; conditions: Homo sapiens, DU-145, 40 hr incubation, read-out: DU145 (inhibition of 50% of cellular growth)
Description: as §1

[3] = system: K562 (Chronic Myeloid Leukemia) cells; assay: Cellular growth assay (MTT), K562; type: cell-based; conditions: Homo sapiens, 40 hr incubation, read-out: K562 (inhibition of 50% of cellular growth)
Description: as §1

| Structure (SMILES) | IC50 [1] | IC50 (TelJak3) | Tubulin (inhibition of tubulin polymerisation) (Tubulin) | IC50 (TelJak2) | IC50 [2] | IC50 [3] |
| --- | --- | --- | --- | --- | --- | --- |
| CCCC(Nc1cncc(-c2ccc(O)c(OC)c2)n1)c1ccccc1 (stereo not drawn) | ≤ 20 µM | ≤ 20 µM | + (inhibited tubulin polymerisation by greater than 50% at 50 μM) | ≤ 20 µM | ≤ 20 µM | ≤ 20 µM |
| CCCC(Nc1cncc(-c2ccc(O)c(OC)c2)n1)c1ccc(Cl)cc1 (stereo not drawn) | ≤ 20 µM | ≤ 20 µM | + (inhibited tubulin polymerisation by greater than 50% at 50 μM) | ≤ 20 µM | ≤ 20 µM | ≤ 20 µM |
| CCCC(Nc1cncc(-c2ccc(O)c(OC)c2)n1)c1ccc(C)cc1 (stereo not drawn) | ≤ 20 µM | ≤ 20 µM | + (inhibited tubulin polymerisation by greater than 50% at 50 μM) | ≤ 20 µM | ≤ 20 µM | ≤ 20 µM |
| CCCC(Nc1cncc(-c2ccc(O)c(OC)c2)n1)c1ccc(OC)cc1 (stereo not drawn) | ≤ 20 µM | ≤ 20 µM | + (inhibited tubulin polymerisation by greater than 50% at 50 μM) | ≤ 20 µM | ≤ 20 µM | ≤ 20 µM |
| CCCC(Nc1cncc(-c2ccc(O)c(OC)c2)n1)c1cccc(Cl)c1 (stereo not drawn) | ≤ 20 µM | ≤ 20 µM | + (inhibited tubulin polymerisation by greater than 50% at 50 μM) | ≤ 20 µM | ≤ 20 µM | ≤ 20 µM |
| CCCC(Nc1cncc(-c2ccc(O)c(OC)c2)n1)c1cccc(F)c1 (stereo not drawn) | ≤ 20 µM | ≤ 20 µM | + (inhibited tubulin polymerisation by greater than 50% at 50 μM) | ≤ 20 µM | ≤ 20 µM | ≤ 20 µM |
| CCCC(Nc1cncc(-c2ccc(O)c(OC)c2)n1)c1cccc(O)c1 (stereo not drawn) | > 20 µM | ≤ 20 µM | + (inhibited tubulin polymerisation by greater than 50% at 50 μM) | ≤ 20 µM | > 20 µM | ≤ 20 µM |
| CCCC(Nc1cncc(-c2ccc(O)c(OC)c2)n1)c1cccc(C)c1 (stereo not drawn) | ≤ 20 µM | ≤ 20 µM | + (inhibited tubulin polymerisation by greater than 50% at 50 μM) | ≤ 20 µM | ≤ 20 µM | ≤ 20 µM |
| CCCC(Nc1cncc(-c2ccc(O)c(OC)c2)n1)c1cc(OC)cc(OC)c1 (stereo not drawn) | ≤ 20 µM | ≤ 20 µM | + (inhibited tubulin polymerisation by greater than 50% at 50 μM) | ≤ 20 µM | ≤ 20 µM | ≤ 20 µM |
| CCCC(Nc1cncc(-c2ccc(OC)c(OC)c2)n1)c1ccccc1 (stereo not drawn) | ≤ 20 µM | ≤ 20 µM | + (inhibited tubulin polymerisation by greater than 50% at 50 μM) | ≤ 20 µM | ≤ 20 µM | ≤ 20 µM |
| CCCC(Nc1cncc(-c2ccc3c(c2)OCO3)n1)c1ccccc1 (stereo not drawn) | ≤ 20 µM | ≤ 20 µM | + (inhibited tubulin polymerisation by greater than 50% at 50 μM) | ≤ 20 µM | ≤ 20 µM | ≤ 20 µM |
| CCCC(Nc1cncc(-c2ccc(O)c(OC)c2)n1)c1c(F)cccc1Cl (stereo not drawn) | ≤ 20 µM | ≤ 20 µM | + (inhibited tubulin polymerisation by greater than 50% at 50 μM) | ≤ 20 µM | ≤ 20 µM | ≤ 20 µM |
| CCCC(Nc1cncc(-c2ccc(O)c(OC)c2)n1)c1ccc(C(F)(F)F)cc1 (stereo not drawn) | > 20 µM | > 20 µM | − (did not inhibit tubulin polymerisation by 50% at 50 μM) | > 20 µM | > 20 µM | > 20 µM |
| CCCC(Nc1cncc(-c2ccc(O)c(OC)c2)n1)c1cccnc1 (stereo not drawn) | ≤ 20 µM | ≤ 20 µM | + (inhibited tubulin polymerisation by greater than 50% at 50 μM) | ≤ 20 µM | ≤ 20 µM | ≤ 20 µM |
| CCC[C@H](Nc1cncc(-c2ccc(O)c(OC)c2)n1)c1cccc(F)c1 | ≤ 20 µM | ≤ 20 µM | + (inhibited tubulin polymerisation by greater than 50% at 50 μM) | ≤ 20 µM | ≤ 20 µM | ≤ 20 µM |
| CCCC(Nc1cncc(-c2ccc(O)c(OC)c2)n1)c1cccc(C(=O)OC)c1 (stereo not drawn) | ≤ 20 µM | ≤ 20 µM | + (inhibited tubulin polymerisation by greater than 50% at 50 μM) | ≤ 20 µM | ≤ 20 µM | ≤ 20 µM |
| CCCC(Nc1cncc(-c2ccc(O)c(OC)c2)n1)c1cccc(NC(=O)c2cccnc2)c1 (stereo not drawn) | ≤ 20 µM | ≤ 20 µM | + (inhibited tubulin polymerisation by greater than 50% at 50 μM) | ≤ 20 µM | ≤ 20 µM | ≤ 20 µM |
| CCCC(Nc1cncc(-c2ccc(O)c(OC)c2)n1)c1cc(F)cc(F)c1 (stereo not drawn) | > 20 µM | ≤ 20 µM | + (inhibited tubulin polymerisation by greater than 50% at 50 μM) | ≤ 20 µM | > 20 µM | ≤ 20 µM |
| CCCC(Nc1cncc(-c2ccc(O)c(OC)c2)n1)c1cncc(C)c1 (stereo not drawn) | ≤ 20 µM | ≤ 20 µM | + (inhibited tubulin polymerisation by greater than 50% at 50 μM) | ≤ 20 µM | > 20 µM | ≤ 20 µM |
| CCC[C@H](Nc1cncc(-c2ccc(N)c(OC)c2)n1)c1ccccc1 | ≤ 20 µM | ≤ 20 µM | + (inhibited tubulin polymerisation by greater than 50% at 50 μM) | ≤ 20 µM | ≤ 20 µM | ≤ 20 µM |
| CCCC(Nc1cncc(-c2ccc(N)c(OC)c2)n1)c1cccnc1 (stereo not drawn) | ≤ 20 µM | ≤ 20 µM | + (inhibited tubulin polymerisation by greater than 50% at 50 μM) | ≤ 20 µM | ≤ 20 µM | ≤ 20 µM |
| CCCC(Nc1cncc(-c2ccc(O)c(OC(C)C)c2)n1)c1cccnc1 (stereo not drawn) | ≤ 20 µM | ≤ 20 µM | + (inhibited tubulin polymerisation by greater than 50% at 50 μM) | ≤ 20 µM | ≤ 20 µM | ≤ 20 µM |
| COCCC(Nc1cncc(-c2ccc(O)c(OC)c2)n1)c1ccccc1 (stereo not drawn) | ≤ 20 µM | ≤ 20 µM | + (inhibited tubulin polymerisation by greater than 50% at 50 μM) | ≤ 20 µM | ≤ 20 µM | ≤ 20 µM |
| CCCC(Nc1cnc(C)c(-c2ccc(N)c(OC)c2)n1)c1ccccc1 (stereo not drawn) | ≤ 20 µM | ≤ 20 µM | + (inhibited tubulin polymerisation by greater than 50% at 50 μM) | ≤ 20 µM | ≤ 20 µM | ≤ 20 µM |
| CCCC(Nc1nc(-c2ccc(N)c(OC)c2)cnc1C)c1ccccc1 (stereo not drawn) | ≤ 20 µM | ≤ 20 µM | + (inhibited tubulin polymerisation by greater than 50% at 50 μM) | ≤ 20 µM | ≤ 20 µM | ≤ 20 µM |
